Laboratory results reported in the supplement of paper PMC11451515.

Tests used:
Experiment in all cases: AUC of viability dose-response curve (% viability x log10 dose units); higher = less sensitive
Details in all cases: 48 h
SEM cells = tested on: SEM cells
In short: (§1)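 Medium-adapted leukemia cells in 1536-well plates, at 500 or 1000 cells/well, were incubated for 48 h at 37°C with library compounds in DMSO at 11 threefold doses from 47 μM to 0.79 nM. CellTiter-Glo One luminescence normalised per plate to DMSO and cell-free wells was fitted with a four-parameter log-logistic model over log10 doses. Area under the curve was integrated from this fit by trapezoidal rule, with curves beyond full viability scaled and failed quality-control curves removed.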

P12-Ichikawa = tested on: P12-Ichikawa
In short: as §1

NOMO1 = tested on: NOMO1
In short: as §1

[1] = RPMI 5 mM glucose + 10% dialyzed FBS

Cc1ccnc(N[S+](=O)([O-])c2ccc(NC(=O)Nc3ccc([S+](=O)([O-])Nc4nccc(C)n4)cc3)cc2)n1
AUC of viability dose-response curve (SEM cells; HPLM + 10% dialyzed FBS): 236 | AUC of viability dose-response curve (SEM cells; RPMI 5 mM glucose + 10% FBS): 180 | AUC of viability dose-response curve (SEM cells; [1]): 210 | AUC of viability dose-response curve (P12-Ichikawa; HPLM + 10% dialyzed FBS): 274 | AUC of viability dose-response curve (P12-Ichikawa; RPMI 5 mM glucose + 10% FBS): 279 | AUC of viability dose-response curve (P12-Ichikawa; [1]): 270

Clc1ccc(C(Cn2ccnc2)OCc2ccc(Sc3ccccc3)cc2)c(Cl)c1 (stereo not drawn)
AUC of viability dose-response curve (SEM cells; HPLM + 10% dialyzed FBS): 416 | AUC of viability dose-response curve (SEM cells; RPMI 5 mM glucose + 10% FBS): 445 | AUC of viability dose-response curve (SEM cells; [1]): 438 | AUC of viability dose-response curve (P12-Ichikawa; HPLM + 10% dialyzed FBS): 453 | AUC of viability dose-response curve (P12-Ichikawa; RPMI 5 mM glucose + 10% FBS): 453 | AUC of viability dose-response curve (P12-Ichikawa; [1]): 455 | AUC of viability dose-response curve (NOMO1; HPLM + 10% dialyzed FBS): 441 | AUC of viability dose-response curve (NOMO1; RPMI 5 mM glucose + 10% FBS): 450 | AUC of viability dose-response curve (NOMO1; [1]): 453

O=C(Nc1cccc2c(=O)cc(-c3nnn[nH]3)oc12)c1ccc(OCCCCc2ccccc2)cc1
AUC of viability dose-response curve (SEM cells; HPLM + 10% dialyzed FBS): 378 | AUC of viability dose-response curve (SEM cells; RPMI 5 mM glucose + 10% FBS): 371 | AUC of viability dose-response curve (SEM cells; [1]): 392 | AUC of viability dose-response curve (P12-Ichikawa; HPLM + 10% dialyzed FBS): 424 | AUC of viability dose-response curve (P12-Ichikawa; RPMI 5 mM glucose + 10% FBS): 416 | AUC of viability dose-response curve (P12-Ichikawa; [1]): 389 | AUC of viability dose-response curve (NOMO1; HPLM + 10% dialyzed FBS): 433 | AUC of viability dose-response curve (NOMO1; RPMI 5 mM glucose + 10% FBS): 384 | AUC of viability dose-response curve (NOMO1; [1]): 404

Clc1ccc(C(Cn2ccnc2)OCc2ccsc2Cl)c(Cl)c1 (stereo not drawn)
AUC of viability dose-response curve (SEM cells; HPLM + 10% dialyzed FBS): 456 | AUC of viability dose-response curve (SEM cells; RPMI 5 mM glucose + 10% FBS): 467 | AUC of viability dose-response curve (SEM cells; [1]): 463 | AUC of viability dose-response curve (P12-Ichikawa; HPLM + 10% dialyzed FBS): 467 | AUC of viability dose-response curve (P12-Ichikawa; RPMI 5 mM glucose + 10% FBS): 461 | AUC of viability dose-response curve (P12-Ichikawa; [1]): 464 | AUC of viability dose-response curve (NOMO1; HPLM + 10% dialyzed FBS): 470 | AUC of viability dose-response curve (NOMO1; RPMI 5 mM glucose + 10% FBS): 476 | AUC of viability dose-response curve (NOMO1; [1]): 457

CN1C(=O)\C(=C/C2=C1N=C(NC3CCOCC3)N=C2)OC4=C(F)C=C(F)C=C4
AUC of viability dose-response curve (SEM cells; HPLM + 10% dialyzed FBS): 439 | AUC of viability dose-response curve (SEM cells; RPMI 5 mM glucose + 10% FBS): 463 | AUC of viability dose-response curve (SEM cells; [1]): 430 | AUC of viability dose-response curve (P12-Ichikawa; HPLM + 10% dialyzed FBS): 428 | AUC of viability dose-response curve (P12-Ichikawa; RPMI 5 mM glucose + 10% FBS): 429 | AUC of viability dose-response curve (P12-Ichikawa; [1]): 420 | AUC of viability dose-response curve (NOMO1; HPLM + 10% dialyzed FBS): 420 | AUC of viability dose-response curve (NOMO1; RPMI 5 mM glucose + 10% FBS): 406 | AUC of viability dose-response curve (NOMO1; [1]): 413

COC1=CC2=C(C=C1CC3=C(F)C(=CC=C3)Cl)C(=O)\C(=C/N2[C@H](CO)C(C)C)C(O)=O
AUC of viability dose-response curve (P12-Ichikawa; HPLM + 10% dialyzed FBS): 446 | AUC of viability dose-response curve (P12-Ichikawa; RPMI 5 mM glucose + 10% FBS): 421 | AUC of viability dose-response curve (P12-Ichikawa; [1]): 423 | AUC of viability dose-response curve (NOMO1; HPLM + 10% dialyzed FBS): 445 | AUC of viability dose-response curve (NOMO1; RPMI 5 mM glucose + 10% FBS): 452 | AUC of viability dose-response curve (NOMO1; [1]): 454

CCc1nc(C(N)=O)c(Nc2ccc(N3CCC(N4CCN(C)CC4)CC3)c(OC)c2)nc1NC1CCOCC1
AUC of viability dose-response curve (SEM cells; HPLM + 10% dialyzed FBS): 291 | AUC of viability dose-response curve (SEM cells; RPMI 5 mM glucose + 10% FBS): 285 | AUC of viability dose-response curve (SEM cells; [1]): 277 | AUC of viability dose-response curve (P12-Ichikawa; HPLM + 10% dialyzed FBS): 438 | AUC of viability dose-response curve (P12-Ichikawa; RPMI 5 mM glucose + 10% FBS): 436 | AUC of viability dose-response curve (P12-Ichikawa; [1]): 434 | AUC of viability dose-response curve (NOMO1; HPLM + 10% dialyzed FBS): 389 | AUC of viability dose-response curve (NOMO1; RPMI 5 mM glucose + 10% FBS): 410 | AUC of viability dose-response curve (NOMO1; [1]): 363

CC(C)(OCc1nn(Cc2ccccc2)c2ccccc12)C(=O)O
AUC of viability dose-response curve (SEM cells; HPLM + 10% dialyzed FBS): 475 | AUC of viability dose-response curve (SEM cells; RPMI 5 mM glucose + 10% FBS): 471 | AUC of viability dose-response curve (SEM cells; [1]): 477 | AUC of viability dose-response curve (P12-Ichikawa; HPLM + 10% dialyzed FBS): 473 | AUC of viability dose-response curve (P12-Ichikawa; RPMI 5 mM glucose + 10% FBS): 459 | AUC of viability dose-response curve (P12-Ichikawa; [1]): 427 | AUC of viability dose-response curve (NOMO1; HPLM + 10% dialyzed FBS): 460 | AUC of viability dose-response curve (NOMO1; RPMI 5 mM glucose + 10% FBS): 442 | AUC of viability dose-response curve (NOMO1; [1]): 467

CN1CCN(c2cc(C(=O)Nc3ccc4c(c3)-c3c(c(C(N)=O)nn3-c3ccc(F)cc3)CC4)c(Cl)cn2)CC1
AUC of viability dose-response curve (SEM cells; HPLM + 10% dialyzed FBS): 444 | AUC of viability dose-response curve (SEM cells; RPMI 5 mM glucose + 10% FBS): 360 | AUC of viability dose-response curve (SEM cells; [1]): 449 | AUC of viability dose-response curve (P12-Ichikawa; HPLM + 10% dialyzed FBS): 448 | AUC of viability dose-response curve (P12-Ichikawa; RPMI 5 mM glucose + 10% FBS): 453 | AUC of viability dose-response curve (P12-Ichikawa; [1]): 451 | AUC of viability dose-response curve (NOMO1; HPLM + 10% dialyzed FBS): 442 | AUC of viability dose-response curve (NOMO1; RPMI 5 mM glucose + 10% FBS): 449 | AUC of viability dose-response curve (NOMO1; [1]): 451

O=C(O)CCc1ccc(NCc2cccc(Oc3ccccc3)c2)cc1
AUC of viability dose-response curve (SEM cells; HPLM + 10% dialyzed FBS): 406 | AUC of viability dose-response curve (SEM cells; RPMI 5 mM glucose + 10% FBS): 439 | AUC of viability dose-response curve (SEM cells; [1]): 413 | AUC of viability dose-response curve (P12-Ichikawa; HPLM + 10% dialyzed FBS): 464 | AUC of viability dose-response curve (P12-Ichikawa; RPMI 5 mM glucose + 10% FBS): 449 | AUC of viability dose-response curve (P12-Ichikawa; [1]): 471 | AUC of viability dose-response curve (NOMO1; HPLM + 10% dialyzed FBS): 446 | AUC of viability dose-response curve (NOMO1; RPMI 5 mM glucose + 10% FBS): 441 | AUC of viability dose-response curve (NOMO1; [1]): 444

COC(=O)Nc1nc2cc(Sc3ccccc3)ccc2[nH]1
AUC of viability dose-response curve (SEM cells; HPLM + 10% dialyzed FBS): 377 | AUC of viability dose-response curve (SEM cells; RPMI 5 mM glucose + 10% FBS): 365 | AUC of viability dose-response curve (SEM cells; [1]): 371 | AUC of viability dose-response curve (P12-Ichikawa; HPLM + 10% dialyzed FBS): 377 | AUC of viability dose-response curve (P12-Ichikawa; RPMI 5 mM glucose + 10% FBS): 376 | AUC of viability dose-response curve (P12-Ichikawa; [1]): 382 | AUC of viability dose-response curve (NOMO1; HPLM + 10% dialyzed FBS): 377 | AUC of viability dose-response curve (NOMO1; RPMI 5 mM glucose + 10% FBS): 391 | AUC of viability dose-response curve (NOMO1; [1]): 387
